Earlier results as cited in patent publication US20110206661A1, “TRIMETHOXYPHENYL INHIBITORS OF TYROSINE KINASE” (AUSPEX PHARMACEUTICALS, INC., priority 2010, published 2011).

Conditions: human plasma after oral administration of fostamatinib

drug-related compound observed in human plasma: only small amounts
SMILES: COc1cc(Nc2ncc(F)c(Nc3ccc4c(n3)N(COP(=O)(O)O)C(=O)C(C)(C)O4)n2)cc(OC)c1OC [Fostamatinib, 6-[[5-fluoro-2-[(3,4,5-trimethoxyphenyl)amino]-4-pyrimidinyl]amino]-2,2-dimethyl-4-[(phosphonooxy)methyl]-2H-pyrido[3,2-b]-1,4-oxazin-3(4H)-one]
